Results: article PMC11395145, “The Archetypal Gamma-Core Motif of Antimicrobial Cys-Rich Peptides Inhibits H^+-ATPases in Target Pathogens” (International Journal of Molecular Sciences, 2024)
Where a SMILES comes first, the peptide text is derived from it. Bridges are numbered along the chain shown (N, C = ends).

Assays:
[1] = system: Candida albicans ATCC 10231; assay: Microbicidal (spread-plate cell viability) assay, candidacidal activity; assay type: cell-based; conditions: for microbicidal (candidacidal) activity, in words: 90 min, 37 °C, Tris buffer pH 7.4, 10^6 cells/mL, CFU plating
Method: (§1) First, we tested the antimicrobial activity of Kal-1 and a shorter Kal-1-derived peptide (Kdp15), both containing the complete γ-core signature of human lactoferrin, against C. albicans and P. aeruginosa. Microbicidal (cidal) activity was determined after 90 min of incubation (37 °C; pH 7.4) with a range of concentrations of each hLf-derived peptide.
(§2) Figure 1 Cell viability and membrane permeabilization assays. C. albicans or P. aeruginosa (10^6 cells/mL) were incubated (90 min, 37 °C) with each peptide/protein at the indicated concentrations. Aliquots were plated on SDA or […], and colonies were counted after 24–48 h (C. albicans) or 24 h (P. aeruginosa). At each point, samples were stained with propidium iodide (PI) and intracellular PI incorporation, indicative of membrane permeabilization, was quantified by flow cytometry. The relative cell viability (blue lines) and cellular permeabilization (red lines) were calculated as the percentage of untreated cells. Human lactoferrin (hLf) and the peptide Lfpep were used as negative and positive controls of cellular permeabilization, respectively.
(§3) Microbial susceptibility to the peptides was determined in a spread-plate assay as described previously. Briefly, two-fold serially diluted peptides were incubated (37 °C) with approximately 10^6 cells/mL in Tris buffer (10 mM Tris-HCl, pH 7.4). After 90 min of incubation with the peptides, aliquots were removed and plated in duplicate on an appropriate agar plate for each species (SDA for C. albicans, TSA for P. aeruginosa). The plates were incubated for 24–48 h at 30 °C (C. albicans) or 24 h at 37 °C (P. aeruginosa) for enumeration. The cell viability values, expressed as colony forming units (CFUs), were determined relative to incubation without added peptides and represent the mean ± standard deviation (±SD) of at least three independent determinations. For inhibition assays, the cell suspensions were preincubated (15 min at 37 °C) with the corresponding inhibitors before the addition of peptides. Water-insoluble inhibitors were prepared in DMSO, such that the final assay volume was ≤1%. Other specific experimental inhibition conditions are described where appropriate. The IC50 value is expressed as the concentration that caused 50% reduction in viable counts.

[2] = system: Pseudomonas aeruginosa 10145 (PAO1); assay: Microbicidal (spread-plate cell viability) assay, pseudomonacidal activity; assay type: cell-based; conditions: for microbicidal (pseudomonacidal) activity, in words: 90 min, 37 °C, Tris buffer pH 7.4, 10^6 cells/mL, CFU plating
Method: as §1, §2, §3

[3] = system: C. albicans cells; assay: Oxygen consumption measurement (Clark-type electrode); assay type: cell-based, Candida albicans; conditions: 5 × 10^6 cells/mL, peptides at IC50, piericidin A 32 μM, at least 30 min, 25 °C
Method: (§4) Figure 3 Effect of cellular respiration on the microbicidal activity of hLf γ-core-containing peptides. (A,C) Oxygen consumption was measured in C. albicans and P. aeruginosa cellular suspensions in the absence (control) or the presence of kaliocin-1 (Kal-1), Kdp15, or human lactoferrin (hLf), and piericidin A (positive control). (B,D) Effect of cellular respiration on the microbicidal activity of hLf γ-core-containing peptides. Cells (10^6 cells/mL) were pre-incubated (15 min, 37 °C) with 32 μM piericidin A and incubated for 90 min at 37 °C with the peptides hLf or BM2. The cell viability was determined by means of the plate counting method. The results are the mean ± SD from duplicates of at least three independent experiments. * p < 0.05, ** p < 0.01, and *** p < 0.001 were used.
(§5) C. albicans or P. aeruginosa cells were grown to the mid-logarithmic phase, washed twice in Tris buffer, and resuspended in the same buffer, as described in [9, 10]. Briefly, cells (5 × 10^6 cells/mL) were pre-incubated for 15 min at 37 °C with the peptides (IC50). […] Oxygen consumption was measured using a Clark-type oxygen electrode (Dual digital-model 20, Rank Brothers Ltd., Cambridge, UK) in a closed jacketed chamber maintained at 25 °C. […] The viability of the cells was determined at 30 min by removing aliquots from the oxygen chambers and plating the subsequent dilutions on SDA or TSA plates.

[4] = system: P. aeruginosa cells; assay: as above; assay type: cell-based, Pseudomonas aeruginosa; conditions: 5 × 10^6 cells/mL, peptides at IC50, piericidin A 32 μM, at least 30 min, 25 °C
Method: as §4, §5

[5] = system: Candida albicans ATCC 10231; conditions: used in control assays; cited from earlier work
Method: First, we tested the antimicrobial activity of Kal-1 and a shorter Kal-1-derived peptide (Kdp15), both containing the complete γ-core signature of human lactoferrin, against C. albicans and P. aeruginosa. Microbicidal (cidal) activity was determined after 90 min of incubation (37 °C; pH 7.4) with a range of concentrations of each hLf-derived peptide. The hLf γ-core-containing peptides were microbicidal in a concentration-dependent way (Figure 1). […] The IC50 es ...

[6] = system: C. albicans cells; assay: Measurement of intracellular ATP (BacTiter-Glo); assay type: cell-based, Candida albicans; conditions: C. albicans 10^6 cells/mL, candidacidal concentration, 90 min, 37 °C; BM2 0.25 μM
Method: Total ATP was measured by using the BacTiter-Glo^TM Microbial Cell Viability Assay (Promega Co., Madison, WI, USA) according to the manufacturer’s instructions. […] Aliquots (100 μL) were incubated (90 min at 37 °C) with kaliocin-1, Kdp15, or human lactoferrin and the BM2 peptide (positive control). One hundred microliters of incubation mix was transferred into a 96-well opaque white plate, mixed with an equal volume of the BacTiter-Glo reagent, and incubated for 15 min in the dark. The reagent used a thermostable luciferase to produce luminescence in an ATP-dependent manner. The emitted luminescence was detected by using a Varioskan Flash multimode reader (Thermo Scientific, Waltham, MA, USA) with a 10 s of shaking and 1 s integration time. A calibration curve was prepared for each experiment, with ATP standards ranging from 1 to 1000 nM. For assays performed in the presence of the BM2 peptide, samples were preincubated with 0.25 μM BM2 for 30 min at 37 °C. All the tests were performed in triplicate at least four times.

[7] = concentration range 0 to 100 μM

CC[C@H](C)[C@@H]1NC(=O)[C@H](C(C)C)NC(=O)[C@H](CC(C)C)NC(=O)CNC(=O)[C@H](C(C)C)NC(=O)[C@@H]2CCCN2C(=O)[C@H]([C@@H](C)CC)NC(=O)[C@@H]2CSSC[C@@H]3NC(=O)[C@H](C(C)C)NC(=O)CNC(=O)[C@H](CC(N)=O)NC(=O)[C@@H](NC(=O)[C@H](CO)NC(=O)[C@H](C)NC(C)=O)CSSC[C@H](NC(=O)[C@H](C)NC(=O)[C@H](CO)NC(=O)[C@H]([C@@H](C)O)NC(=O)CNC(=O)[C@H](CSSC[C@@H](C(=O)N[C@@H](CCCNC(=N)N)C(=O)N[C@@H](CC(N)=O)C(=O)N4CCC[C@H]4C(=O)N[C@@H](CO)C(=O)NCC(N)=O)NC(=O)[C@H](Cc4ccc(O)cc4)NC(=O)CNC1=O)NC(=O)[C@@H]1CCCN1C(=O)[C@@H]1CCCN1C(=O)[C@H](CCSC)NC(=O)[C@H](CCC(=O)O)NC(=O)[C@H](Cc1ccccc1)NC(=O)[C@@H]1CCCN1C(=O)[C@H](CO)NC3=O)C(=O)N[C@@H](CCCNC(=N)N)C(=O)N2 [PA1b] (Ac-ASCNGVCSPFEMPPCGTSACRCIPVGLVIGYCRNPSG-NH2; disulfide 3-20, 7-22, 15-32)
microbicidal (candidacidal) activity, in words [1]: showed candidacidal activity
microbicidal (pseudomonacidal) activity, in words [2]: not pseudomonacidal

C/C=C(\C)[C@H](O)[C@H](C)/C=C(C)/C=C/C/C(C)=C/Cc1nc(OC)c(OC)c(O)c1C [piericidin A, reference compound]
oxygen consumption of C. albicans in presence of the substance [3]: inhibited
oxygen consumption of P. aeruginosa in presence of the substance [4]: inhibited

CAGTGENKC [Kdp9]
antimicrobial activity, in words [1, 7]: not detected
antimicrobial activity, in words [2, 7]: not detected

D-NH2-RRRFWWFRRR-CONH2 [BM2, reference compound]
previously reported microbicidal concentration (organism not given) [5]: 0.25 µM
increment in intracellular ATP (iATP) level compared to untreated control [6]: ~ 9 fold
decrease of candidacidal activity by oligomycin A ([1]; 0.25 μM BM2, cells pre-incubated 15 min, 37 °C with 16 μg/mL oligomycin A): ~ 62%
effect of high external K^+ on candidacidal activity ([1]; Tris buffer with 50 mM KCl vs without): decreased
effect of respiration inhibition (piericidin A) on candidacidal activity ([1]; cells pre-incubated 15 min, 37 °C with 32 μM piericidin A, then 90 min with peptide): substantially inhibited
effect of Tok1p K^+ channel block (TEA^+) on candidacidal activity ([1]; cells pre-incubated 15 min with 10 mM TEA^+): significantly (p < 0.001) inhibited

GSKKPVPIIYCNRRTGKCQRM [Thanatin, complete 21-aa antimicrobial peptide from Podisus maculiventris (insect)]
microbicidal (candidacidal) activity, in words [1]: most potent
microbicidal (pseudomonacidal) activity, in words [2]: most potent

HCKNKEHLRSGRCRDDFRCWCT [PvD1, 22-aa γ-core fragment of defensin PvD1 from Phaseolus vulgaris (bean)]
microbicidal (pseudomonacidal) activity, in words [2]: showed pseudomonacidal activity
